In patent US6780883B2, “Amide inhibitors of microsomal triglyceride transfer protein” (Warner-Lambert Company, priority 1998, dated 2004):

Assays:
[1] = molecular target: apolipoprotein(a), [apo(a)], apolipoproteinB-100, [apoB-100], coupling reaction that generates Lp(a) (Homo sapiens, UniProt P04114+P08519); experiment: LPABC screen: lipoprotein(a) biochemical coupling assay, Lp(a) content by ELISA; conditions: recombinant apo(a) 17-kringle (293 cell media) + HepG2 conditioned media, 67 minutes, 37° C., 0.3 to 50 μM compound; read-out: Lp ABC IC50
Protocol: LPABC Screen The lipoprotein(a), [Lp(a)], biochemical coupling assay (LPABC) is used to characterize inhibitors of the apolipoprotein(a), [apo(a)], apolipoproteinB-100, [apoB-100], coupling reaction that generates Lp(a). Conditioned media from 293 cells (ATCC CRL-1573), permanently transfected with an apo(a) 17-kringle cDNA expression construct (pcDNA-AMP, In Vitrogen, Carlsbad, Calif.) using standard molecular biology techniques, was used as a source of recombinant apo(a) is diluted 1:3 with phosphate buffered saline (PBS) and 90 μL is pipetted into each well of a 96-well plate and placed into a 37° C. incubator for 10 minutes. Twenty microliters of a 0.3 to 50 μM solution of a compound of the present invention in PBS is added to the warmed plate. Ninety microliters of HepG2 (ATCC HB-8065) cell conditioned media diluted 1:3 with PBS is added to the apo(a)/compound mixture and mixed by pipetting up and down 5 times. The reaction is incubated for 67 minutes in a 37° C. incubator. A 100 μL aliquot of the reaction is removed and assayed for its Lp(a) content by an enzyme linked immunosorbent assay (ELISA).

[2] = system: Lp(a) production in HepG2^K17 cells; experiment: LPA3 screen: inhibition of Lp(a) production in transfected HepG2 cells, Lp(a) in media by ELISA; format: cell-based; conditions: Homo sapiens, 8 hours, 0.3 to 50 μM compound, Lp(a) normalized for total protein, read-out: Lp A3 IC50
Protocol: The LPA3 screen is used to identify compounds that inhibit Lp(a) production. This screen employs permanently transfected HepG2 cells (HepG2^K17) that are generated using an apo(a) 17-kringle cDNA expression construct (pcDNA-AMP, In Vitrogen, Carlsbad, Calif.) in accordance with methods that are well-known in molecular biology.
HepG2^K17 cells are seeded in 96-well plates at a density of 75,000 cells per well in 0.25 mL of Dulbecco's Modified Eagle Media (DMEM) containing 10% fetal bovine serum (FBS). Seeded plates are incubated overnight in a 37° C., 5% CO2/95% 02 incubator. The media is removed, replaced with (1) fresh media, or (2) fresh media plus 0.3 to 50 μM of a compound of the present invention in 20 μL of PBS, and the plates returned to the incubator for 8 hours. After the additional 8 hours of incubation, Lp(a) is assayed in the media by ELISA. Cells are digested with 0.5N NaOH overnight and assayed for total protein. Lp(a) values are normalized for total protein content.

Row | IC50 [1] [µM] | Structure (SMILES) | IC50 [2] [µM]
1 | > 50 | CCOc1ccc(C(=O)N(Cc2cccnc2)Cc2ccccc2-c2ccccc2)cc1 [Example 102, N-Biphenyl-2-ylmethyl-4-ethoxy-N-pyridin-3-ylmethyl-benzamide] | 15.9
2 | > 50 | COc1ccc(C(=O)N(Cc2ccccc2-c2ccccc2)c2ccc(OC)cc2)cc1 [Example 103, N-Biphenyl-2-ylmethyl-4-methoxy-N-(4-methoxy-phenyl)-benzamide] | 49
3 | > 50 | CCOc1ccccc1C(=O)N(Cc1ccccc1-c1ccccc1)c1ccc(OC)cc1 [Example 104, N-Biphenyl-2-ylmethyl-2-ethoxy-N-(4-methoxy-phenyl)-benzamide] | 11.9
4 | > 50 | COc1ccc(N(Cc2ccccc2-c2ccccc2)C(=O)c2ccc3c(c2)OCO3)cc1 [Example 105, Benzo[1,3]dioxole-5-carboxylic acid biphenyl-2-ylmethyl-(4-methoxy-phenyl)-amide] | 13.4
5 | > 50 | COc1ccc(N(Cc2ccccc2-c2ccccc2)C(=O)c2ccc(OC)cc2OC)cc1 [Example 106, N-Biphenyl-2-ylmethyl-2,4-dimethoxy-N-(4-methoxy-phenyl)-benzamide] | 9.3
6 | > 50 | COc1ccc(N(Cc2ccccc2-c2ccccc2)C(=O)c2ccccc2OCc2ccccc2)cc1 [Example 107, 2-Benzyloxy-N-biphenyl-2-ylmethyl-N-(4-methoxy-phenyl)-benzamide] | 15.4
7 | > 50 | COc1ccc(N(Cc2ccccc2-c2ccccc2)C(=O)c2ccccc2Br)cc1 [Example 108, N-Biphenyl-2-ylmethyl-2-bromo-N-(4-methoxy-phenyl)-benzamide] | 37.7
8 | > 50 | COc1ccc(N(Cc2ccccc2-c2ccccc2)C(=O)c2cccc3c2OCO3)cn1 [Example 109, Benzo[1,3]dioxole-4-carboxylic acid biphenyl-2-ylmethyl-(6-methoxy-pyridin-3-yl)-amide] | 11.8
9 | > 50 | CCOc1ccccc1C(=O)N(Cc1ccccc1-c1ccccc1)c1ccccn1 [Example 110, N-Biphenyl-2-ylmethyl-2-ethoxy-N-pyridin-2-yl-benzamide] | 14
10 | > 50 | O=C(c1ccccc1Br)N(Cc1ccccc1-c1ccccc1)c1ccccn1 [Example 111, N-Biphenyl-2-ylmethyl-2-bromo-N-pyridin-2-yl-benzamide] | 18.7
11 | > 50 | O=C(c1ccccc1[N+](=O)[O-])N(Cc1ccccc1-c1ccccc1)c1ccccn1 [Example 112, N-Biphenyl-2-ylmethyl-2-nitro-N-pyridin-2-yl-benzamide] | 23.7
12 | > 50 | O=C(c1ccccc1OCc1ccccc1)N(Cc1ccccc1-c1ccccc1)c1ccccn1 [Example 113, 2-Benzyloxy-N-biphenyl-2-ylmethyl-N-pyridin-2-yl-benzamide] | 25.1
13 | > 50 | O=C(c1ccccc1Br)N(Cc1ccccc1-c1ccccc1)c1cccnc1 [Example 114, N-Biphenyl-2-ylmethyl-2-bromo-N-pyridin-3-yl-benzamide] | 26.7
14 | > 50 | O=C(c1sc2ccccc2c1Cl)N(Cc1ccccc1-c1ccccc1)c1cccnc1 [Example 115, 3-Chloro-benzo[b]thiophene-2-carboxylic acid biphenyl-2-ylmethyl-pyridin-3-yl-amide] | 23.5
15 | > 50 | O=C(c1cc2ccccc2s1)N(Cc1ccccc1-c1ccccc1)c1cccnc1 [Example 116, Benzo[b]thiophene-2-carboxylic acid biphenyl-2-ylmethyl-pyridin-3-yl-amide] | 9.3
16 | > 50 | O=C(c1ccccc1[N+](=O)[O-])N(Cc1ccccc1-c1ccccc1)c1cccnc1 [Example 117, N-Biphenyl-2-ylmethyl-2-nitro-N-pyridin-3-yl-benzamide] | 18
17 | > 50 | CCOc1ccccc1C(=O)N(Cc1ccccc1-c1ccccc1)c1ccncc1 [Example 118, N-Biphenyl-2-ylmethyl-2-ethoxy-N-pyridin-4-yl-benzamide] | 5.8
18 | > 50 | COc1ccccc1C(=O)N(Cc1ccccc1-c1ccccc1)c1ccncc1 [Example 119, N-Biphenyl-2-ylmethyl-2-methoxy-N-pyridin-4-yl-benzamide] | 4.8
19 | > 50 | O=C(c1cccc2c1OCO2)N(Cc1ccccc1-c1ccccc1)c1ccncc1 [Example 120, Benzo[1,3]dioxole-4-carboxylic acid biphenyl-2-ylmethyl-pyridin-4-yl-amide] | 18.1
20 | > 50 | O=C(c1ccccc1Br)N(Cc1ccccc1-c1ccccc1)c1ccncc1 [Example 121, N-Biphenyl-2-ylmethyl-2-bromo-N-pyridin-4-yl-benzamide] | 3.8
21 | > 50 | O=C(c1ccccc1[N+](=O)[O-])N(Cc1ccccc1-c1ccccc1)c1ccncc1 [Example 122, N-Biphenyl-2-ylmethyl-2-nitro-N-pyridin-4-yl-benzamide] | 22.4
22 | > 50 | O=C(c1ccccc1OCc1ccccc1)N(Cc1ccccc1-c1ccccc1)c1ccncc1 [Example 123, 2-Benzyloxy-N-biphenyl-2-ylmethyl-N-pyridin-4-yl-benzamide] | 2.3
23 | > 50 | CCOc1ccc(C(=O)N(Cc2ccccc2-c2ccccc2)c2ccncc2)cc1 [Example 124, N-Biphenyl-2-ylmethyl-4-ethoxy-N-pyridin-4-yl-benzamide] | 3.3
24 | > 50 | O=C(c1cc2ccccc2s1)N(Cc1cccnc1)Cc1ccccc1-c1ccccc1 [Example 125, Benzo[b]thiophene-2-carboxylic acid biphenyl-2-ylmethyl-pyridin-3-ylmethyl-amide] | 23.9
25 | > 50 | COc1ccc(N(Cc2ccccc2-c2ccccc2)C(=O)c2ccccc2SC)cc1 [Example 126, N-Biphenyl-2-ylmethyl-N-(4-methoxy-phenyl)-2-methylsulfanyl-benzamide] | 16
26 | > 50 | COc1ccc(N(Cc2ccccc2-c2ccccc2)C(=O)c2ccccc2SC(C)C)cc1 [Example 127, N-Biphenyl-2-ylmethyl-2-isopropylsulfanyl-N-(4-methoxy-phenyl)-benzamide] | 49.4
27 | > 50 | CCCSc1ccccc1C(=O)N(Cc1ccccc1-c1ccccc1)c1cccc(OC)c1 [Example 128, N-Biphenyl-2-ylmethyl-N-(3-methoxy-phenyl)-2-propylsulfanyl-benzamide] | 46.8
28 | > 50 | COc1cccc(N(Cc2ccccc2-c2ccccc2)C(=O)c2ccccc2SC)c1 [Example 129, N-Biphenyl-2-ylmethyl-N-(3-methoxy-phenyl)-2-methylsulfanyl-benzamide] | 6.5
29 | > 50 | COc1cccc(N(Cc2ccccc2-c2ccccc2)C(=O)c2ccccc2SC(C)C)c1 [Example 130, N-Biphenyl-2-ylmethyl-2-isopropylsulfanyl-N-(3-methoxy-phenyl)-benzamide] | 31.4
30 | > 50 | COc1cccc(N(Cc2ccccc2-c2ccccc2)C(=O)c2ccccc2SCc2ccccc2)c1 [Example 131, 2-Benzylsulfanyl-N-biphenyl-2-ylmethyl-N-(3-methoxy-phenyl)-benzamide] | 40.1
